US5276049A, “Cyclic urea derivatives, pharmaceutical compositions containing these compounds and methods of using the same” (Dr. Karl Thomae GmbH, priority 1991, dated 1994)
Counter-ions that a name gives are not always drawn.

How the values were obtained:
mice = settings: mouse, in vivo, 30 mg/kg
Human Thrombocytes = test: Fibrinogen Binding to Human Thrombocytes (I125-fibrinogen, gel-filtered platelets); settings: inhibition of I125-fibrinogen binding to gel-filtered human platelets, ADP, 20 minutes, ambient temperature; read-out: Fibrinogen Binding test IC50
Method in brief: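 Gel-filtered human platelets (from citrated PRP, pH 7.4 Tris/citrate/glucose buffer) incubated 20 min at ambient temperature with test compound, CaCl2, ADP and I125-fibrinogen; non-specific binding with 3 mg/ml cold fibrinogen. Platelets spun through silicone oil, bound fibrinogen gamma-counted; IC50 from a concentration series.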

[1] = system: thrombocyte aggregation in platelet-rich plasma; test: Antithrombotic effect: collagen-induced thrombocyte aggregation in platelet-rich plasma (Born and Cross); type: cell-based; settings: human platelet-rich plasma, 10 minutes preincubation at 37° C., read-out: Inhibition of platelet aggregation EC50
Method in brief: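 Human platelet-rich plasma (citrated 1:10, 3.14%) incubated with compound 10 min at 37 °C, then aggregation triggered by minimal collagen giving irreversible response. Optical density change tracked photometrically (Born and Cross); EC50 determined graphically as 50% inhibition of optical density change.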

[2] = system: collagen-induced thrombocyte aggregation; test: Collagen-induced thrombocyte aggregation ex vivo after oral administration; type: in vivo; settings: Rhesus monkeys, 1 mg/kg

Row | Structure (SMILES) | sedation (mice) | IC50 (Human Thrombocytes) [nM] | EC50 [1] [nM] | duration of inhibition of collagen-induced thrombocyte aggregation ex vivo [2] | death of animals after intravenous administration (mice; iv)
1 | Cc1nn(-c2ccc(C(=N)N)cc2)c(=O)n1-c1ccc(CCC(=O)O)cc1 [1(139), 2-(4-amidino-phenyl)-4-[4-(2-carboxy-ethyl)-phenyl]-5-methyl-4H-1,2,4-triazol-3-one] | one animal was sedated | 6.8 | 30 |  | 
2 | COC(=O)NC(=N)c1ccc(-n2nc(C)n(-c3ccc(CCC(=O)OCC(C)C)cc3)c2=O)cc1 [Example 5(18), 4-[4-(2-isobutyloxycarbonyl-ethyl)-phenyl]-2-(4-methoxycarbonylamidino-phenyl)-5-methyl-4H-1,2,4-triazol-3-one] |  | > 10000 | 8060 | up to 8 hours | 
3 | Cc1cn(-c2ccc(C(=N)N)cc2)c(=O)n1-c1ccc(CCC(=O)O)cc1 [Example 1(138), 1-(4-amidino-phenyl)-3-[4-(2-carboxy-ethyl)-phenyl]-4-methyl-3H-imidazol-2-one] |  | 21 | 40 |  | did not lead to the death of any of the three animals tested
4 | N=C(N)c1ccc(N2CCN(c3ccc(CCC(=O)O)cc3)S2(=O)=O)cc1 [1(66), 2-(4-amidino-phenyl)-5-[4-(2-carboxy-ethyl)-phenyl]-3,4-dihydro-2H,5H-1,2,5-thiadiazole-1,1-dioxide] | one animal was sedated | 9.1 | 50 |  | 
5 | COC(=O)CCn1cc(-c2ccc(-c3ccc(C(=N)N)cc3)cc2)n(C)c1=O [2(105), 4-(4'-amidino-4-biphenylyl)-1-(2-methoxycarbonyl-ethyl)-3-methyl-3H-imidazol-2-one hydrochloride] |  | 28000 | 1100 |  | 
6 | N=C(N)c1ccc(-n2cnn(-c3ccc(CCC(=O)O)cc3)c2=O)cc1 [1(146), 4-(4-amidino-phenyl)-2-[4-(2-carboxy-ethyl)-phenyl]-4H-1,2,4-triazol-3-one] |  | 6.5 | 50 |  | 
